Laboratory results: patent publication US9433572B2, “Pomegranate based skin protectant and topical application” (POM Wonderful, LLC, priority 2008, dated 2016)

System: lipid peroxyl radicals
Assay: In vivo bleaching of beta-carotene applied to the skin under UVA (lipid peroxyl radical scavenging)
Settings: human forearm skin, 2 mg/cm^2, UVA
Description: The protective effect of pomegranate-derived skin cream from the Example 4 was determined by assessing lipid peroxyl free radical scavenging capacity on the skin. Free radicals have been implicated in many of undesirable aspects of skin aging whether due to intrinsic cause or to exposure to UV radiation. Carotenoids like beta-carotene are efficient antioxidants scavenging singlet molecular oxygen and peroxyl radicals generated in during photooxidation. The bleaching of carotenoids has been used to evaluate the auto-oxidation activity of natural products. This technique can be used to evaluate, in vivo in non-invasive way, the ability of skin cream products to scavenge lipid peroxyl radicals. Basically, the method includes measuring the bleaching of beta-carotene applied to the skin when irradiated by UVA. […] An individual skin type is determined by an Individual Topology Angle (ITA), which can be found by using the following formula: […]*)×180/3.1415. Dr. Scholl's® Round Adhesive callus pad (Schering-Plough, Kenilworth, N.J.) were placed on the volar surface of the designated forearm (pre-cleaned with alcohol) of subjects. […] A baseline chromameter reading is taken after all of the callus pads have been applied. 2 mg/cm^2 of test skin cream and the positive control are applied in duplicate to each of the 2 sites. This is accomplished by means of a pre-calibrated syringe or by weighing the appropriate test material amount in a weigh boat. The test product and positive control are allowed to set on the forearm at ambient temperature for 15 minutes. The chromameter is used to measure the b* parameter of the coloration of the treated skin. Measurements are taken on the treated and untreated sites. The beta-carotene solution is then applied by means of a finger cot to obtain a uniform, homgeous orange color on all sites (pre-treated and non-treated), excluding the two control sites. The chromameter is used to measure the b* component of each site, post-application of the beta-carotene. […] The total exposure to UVA radiation is 6.0 J/cm^2. […]

In the case of `CC1=C(/C=C/C(C)=C/C=C/C(C)=C/C=C/C=C(C)/C=C/C=C(C)/C=C/C2=C(C)CCCC2(C)C)C(C)(C)CCC1` [®-carotene, beta-carotene], the “Mean of Color Index” value (at 10 minutes) is reported as 42%, the “Mean of Color Index” value (at 30 minutes) is reported as 16% and the “Mean of Color Index” value (at 60 minutes) is reported as 0%.
